From patent US11384099B2, “Pyrazolopyridinone compounds” (Janssen Pharmaceutica NV, priority 2017, dated 2022)

Tests used:
[1] = system: NIH/3T3 cells transfected with control vector (MOCK); test: NIH/3T3 mock cell proliferation assay (CTG, counter assay); format: cell-based; settings: Mus musculus, NIH3T3; 72-hr incubation, CellTiter Glo; counter assay for general toxicity
How it was run: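 Control-vector NIH/3T3 cells, 30,000/well in DMEM with 10% FBS, exposed 72 h at 37 °C to compound (9 points, 3-fold from 30 μM, 0.3% DMSO). CellTiter-Glo luminescence normalized to survival %; IC50, pIC50 and Hill slope from concentration-response fit.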

[2] = molecular target: T1, NIH/3T3 cells overexpressing FGFR3 V555M-TACC3 fusion protein (Homo sapiens, UniProt P22607, V555M, cells depend on it); test: NIH/3T3 FGFR3 V555M-TACC3 cell proliferation assay (CTG); format: cell-based; settings: 72-hr incubation, CellTiter Glo; read-out: NIH/3T3 FGFR3 V555M-TACC3 CTG (IC50)
T1 construct: NIH/3T3 FGFR3 V555M-TACC3 CTG (IC50); other: 72-hr incubation, CellTiter Glo; fused on or other part: C-terminal coiled-coil part of TACC3 (part of the key, as a fusion known from patients); Q9Y6A5 (Transforming acidic coiled-coil-containing protein 3)
Protocol: NIH/3T3 FGFR3 V555M-TACC3 Cell Proliferation Assay
(§1) In day 1, 90 μL of cell suspension (NIH/3T3 cells overexpressing FGFR3 V555M-TACC3 fusion protein) (total 30,000 cells per well in growth medium (DMEM containing 1% Glutamax, 10% FBS and 1% Pen/Strep)) was seeded in a 96-well plate and then incubated overnight at 37° C. and 5% CO2. In day 2, 10 μL of growth medium containing 10-fold stock solution of testing compound was added into cell cultures (9 dose points with 4× serial dilution, starting with 10 μM, 0.1% DMSO final). After 72-hr incubation at 37° C. and 5% CO2, in day 5 a volume of 50 μL CellTiter Glo (CTG) reagent was added into cell-containing 96-well plate and the plate was incubated at room temperature for 10 minutes before RLUs (relative light unit) were measured on a microplate reader with luminescence detection module. The RLU value was normalized to survival % and concentration-response curve was plotted using Prism to calculate IC50 (M), pIC50 (−log IC50) and HillSlope value.

[3] = molecular target: T2, human FGFR3 V555M enzyme (cytoplasmic domain carrying V555M mutation) (Homo sapiens, UniProt P22607, V555M); test: FGFR3 V555M mobility shift assay (enzymatic assay, Caliper); format: biochemical; settings: 30 μM ATP, 45 minutes at 30° C.
T2 construct: cytoplasmic domain carrying V555M mutation, from Carna Biosciences; purchased Carna Biosciences
How it was run: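 Cytoplasmic-domain human FGFR3 V555M (0.04 ng/μL) reacted with 30 μM ATP and 1 μM FL-peptide 30 in HEPES pH 7.4, MgCl2, Brij35, DTT, 1% DMSO final. Incubation 45 min at 30 °C, stopped with EDTA. Substrate/product separated and read by mobility shift on a Caliper EZ reader II.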

[4] = molecular target: T3, NIH/3T3 cells overexpressing FGFR3 WT-TACC3 fusion protein (Homo sapiens, UniProt P22607); test: NIH/3T3 FGFR3 WT-TACC3 cell proliferation assay (CTG); format: cell-based; settings: 72-hr incubation, CellTiter Glo; read-out: NIH/3T3 FGFR3 WT-TACC3 CTG (IC50)
T3 construct: NIH/3T3 FGFR3 WT-TACC3 CTG (IC50); other: 72-hr incubation, CellTiter Glo; fused on or other part: C-terminal coiled-coil part of TACC3 (part of the key, as a fusion known from patients); Q9Y6A5 (Transforming acidic coiled-coil-containing protein 3)
Protocol: NIH/3T3 FGFR3 WT-TACC3 Cell Proliferation Assay
as §1, with “WT-TACC3” for “V555M-TACC3”

[5] = molecular target: T4, human FGFR3 wild type enzyme (cytoplasmic domain) (Homo sapiens, UniProt P22607); test: FGFR3 wild type mobility shift assay (enzymatic assay, Caliper); format: biochemical; settings: 75 μM ATP, 50 minutes at 30° C.
T4 construct: human FGFR3 wild type enzyme (cytoplasmic domain, from Cama Biosciences); purchased Carna Biosciences
How it was run: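 Cytoplasmic-domain FGFR3 (0.04 ng/μL) reacted with 75 μM ATP and 1 μM FL-peptide 30 in HEPES pH 7.4/MgCl2/Brij35/DTT buffer, 1% DMSO final. Incubation 50 min at 30° C, EDTA stop; substrate phosphorylation read by microfluidic mobility shift.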

[6] = system: NIH/3T3 cells overexpressing FGFR3 WT-TACC3 fusion protein; test: NIH/3T3 FGFR3 WT-TACC3 cellular phospho-ERK assay (in vitro PD assay); format: cell-based; settings: Mus musculus, NIH3T3; 1-hr incubation, AlphaLISA SureFire Ultra p-ERK1/2; read-out: NIH/3T3 FGFR3 WT-TACC3 pERK (IC50)
Protocol: NIH/3T3 FGFR3 WT-TACC3 Cellular Phospho-ERK Assay (In Vitro PD Assay)
(§2) 50 uL of cell suspension (NIH/3T3 cells overexpressing FGFR3 WT-TACC3 fusion protein) (total 10,000 cells per well in growth medium (DMEM containing 1% Glutamax, 10% FBS and 1% Pen/Strep)) was seeded in a 384-well plate. After overnight incubation at 37° C. and 5% CO2, 5.5 μL of growth medium containing 10× testing compound was added into cell cultures (10 dose points with 4× serial dilution, starting with 10 μM, 0.1% DMSO final). After 1-hr incubation at 37° C. and 5% CO2, the medium was depleted and AlphaLISA SureFire Ultra p-ERK1/2 (Thr202/Tyr204) Assay Kit (from PerkinElmer) was applied for phospho-ERK level detection according to the kit instructions. The RFUs (relative fluorescence units were measured on EnVision microplate reader (ex. 680 nm, em. 615 nm) and concentration-response curve was plotted using Prism to calculate IC50 (M), pIC50 (−log IC50) and HillSlope value.

[7] = system: NIH/3T3 cells overexpressing FGFR3 V555M-TACC3 fusion protein; test: NIH/3T3 FGFR3 V555M-TACC3 cellular phospho-ERK assay (in vitro PD assay); format: cell-based; settings: Mus musculus, NIH3T3; 1-hr incubation, AlphaLISA SureFire Ultra p-ERK1/2; read-out: NIH/3T3 FGFR3 V555M-TACC3 pERK (IC50)
Protocol: NIH/3T3 FGFR3 V555M-TACC3 Cellular Phospho-ERK Assay (In Vitro PD Assay)
as §2, with “μL” for “uL”, “V555M-TACC3” for “WT-TACC3”

T1 sequence (P22607 whole entry V555M, the tested form may be a part): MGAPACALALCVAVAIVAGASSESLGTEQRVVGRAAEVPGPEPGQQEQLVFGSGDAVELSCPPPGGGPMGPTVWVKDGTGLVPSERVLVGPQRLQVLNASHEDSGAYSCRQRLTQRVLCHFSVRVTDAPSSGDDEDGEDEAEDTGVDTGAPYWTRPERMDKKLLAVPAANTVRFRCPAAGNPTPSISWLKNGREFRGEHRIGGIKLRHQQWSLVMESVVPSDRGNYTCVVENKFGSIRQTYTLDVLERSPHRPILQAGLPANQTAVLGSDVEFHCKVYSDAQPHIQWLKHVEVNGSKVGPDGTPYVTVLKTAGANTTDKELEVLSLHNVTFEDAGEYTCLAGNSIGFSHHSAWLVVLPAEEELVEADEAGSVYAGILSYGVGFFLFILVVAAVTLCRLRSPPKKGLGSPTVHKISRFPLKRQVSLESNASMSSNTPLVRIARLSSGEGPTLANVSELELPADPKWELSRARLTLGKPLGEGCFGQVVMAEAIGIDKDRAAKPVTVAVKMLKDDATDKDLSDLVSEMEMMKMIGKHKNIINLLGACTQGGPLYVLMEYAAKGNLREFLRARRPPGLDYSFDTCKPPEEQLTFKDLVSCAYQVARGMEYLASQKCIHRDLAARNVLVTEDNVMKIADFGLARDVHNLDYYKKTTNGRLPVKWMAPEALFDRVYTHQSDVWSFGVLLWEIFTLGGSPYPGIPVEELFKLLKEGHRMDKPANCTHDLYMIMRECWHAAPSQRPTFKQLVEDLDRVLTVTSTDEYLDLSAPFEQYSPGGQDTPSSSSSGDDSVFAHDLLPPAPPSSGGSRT
T3 sequence (P22607 whole entry, change not shown, the tested form may be a part): as the sequence (P22607 whole entry V555M, the tested form may be a part) above, with M555V counted along it
T4 sequence (P22607 397-806 limits assumed): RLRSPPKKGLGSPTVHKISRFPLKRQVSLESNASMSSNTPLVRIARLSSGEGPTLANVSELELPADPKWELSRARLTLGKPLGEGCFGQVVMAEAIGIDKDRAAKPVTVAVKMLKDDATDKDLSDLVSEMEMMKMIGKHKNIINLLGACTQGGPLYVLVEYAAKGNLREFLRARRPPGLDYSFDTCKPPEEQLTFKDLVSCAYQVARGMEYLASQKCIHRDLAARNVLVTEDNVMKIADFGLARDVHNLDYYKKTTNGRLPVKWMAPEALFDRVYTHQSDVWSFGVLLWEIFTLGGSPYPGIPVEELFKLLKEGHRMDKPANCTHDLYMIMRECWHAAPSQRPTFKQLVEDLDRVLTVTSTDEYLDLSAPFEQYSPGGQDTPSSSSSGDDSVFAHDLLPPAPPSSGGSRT
T2 sequence (P22607 397-806 V555M limits assumed): as the sequence (P22607 397-806 limits assumed) above, with V159M counted along it

Compound	IC50 [1] [nM]	GI50 [2] [nM]	IC50 [3] [nM]	GI50 [4] [nM]	IC50 [5] [nM]	IC50 [6] [nM]	IC50 [7] [nM]
CCC(Nc1c(-c2nc3ccc(OCCOC)cc3[nH]2)c(=O)[nH]c2cn(C)nc12)c1ncccn1 (single isomer, unassigned) [Compound 48, (S*)-6-(6-(2-methoxyethoxy)-1H-benzo[d]imidazol-2-yl)-2-methyl-7-((1-(pyrimidin-2-yl)-propyl)amino)-2H-pyrazolo[4,3-b]pyridin-5 (4H)-one]	396	18.5					
COc1cc2[nH]c(-c3c(N[C@@H](C)c4ncccn4)c4nn(C)cc4[nH]c3=O)nc2c(F)c1OC [Compound 55, (S)-6-(4-fluoro-5,6-dimethoxy-1H-benzo[d]imidazol-2-yl)-2-methyl-7-((1-(pyrimidin-2-yl)ethyl)amino)-2H-pyrazolo[4,3-b]pyridin-5 (4H)-one]	2280		0.392	17.4	0.957	5.5	5.19
